Data taken from patent US20250115582A1, “MOLECULAR GLUE DEGRADERS AND METHODS OF USING THE SAME” (Monte Rosa Therapeutics, Inc., priority 2022, published 2025).

Columns and labels:
[1] = target: T1, CK1α (Homo sapiens, UniProt P48729+Q96SW2); assay: CK1α NanoBiT assay (HiBiT-tagged CSNK1A1 in HEK293 clonal line); assay type: cell-based; conditions: HEK293 HiBiT-CSNK1A1/LgBiT cells, 24 h incubation, luminescence
T1 construct: HEK293 clonal line with CRISPR KI HiBiT tag on CSNK1A1; host or cells: HEK293 clonal line, CRISPR HiBiT knock-in at CSNK1A1, stably expressing LgBiT
T1 sequence (P48729 whole entry): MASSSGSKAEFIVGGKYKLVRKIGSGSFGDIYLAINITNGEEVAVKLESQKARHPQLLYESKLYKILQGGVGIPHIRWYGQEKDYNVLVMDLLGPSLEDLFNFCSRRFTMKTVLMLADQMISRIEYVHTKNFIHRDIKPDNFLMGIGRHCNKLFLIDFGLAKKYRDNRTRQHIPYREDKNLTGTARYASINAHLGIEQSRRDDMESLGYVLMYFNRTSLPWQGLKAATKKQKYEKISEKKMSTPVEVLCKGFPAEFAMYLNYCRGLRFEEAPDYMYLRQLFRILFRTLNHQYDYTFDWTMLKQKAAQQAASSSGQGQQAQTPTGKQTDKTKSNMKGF
T1 sequence (Q96SW2 whole entry): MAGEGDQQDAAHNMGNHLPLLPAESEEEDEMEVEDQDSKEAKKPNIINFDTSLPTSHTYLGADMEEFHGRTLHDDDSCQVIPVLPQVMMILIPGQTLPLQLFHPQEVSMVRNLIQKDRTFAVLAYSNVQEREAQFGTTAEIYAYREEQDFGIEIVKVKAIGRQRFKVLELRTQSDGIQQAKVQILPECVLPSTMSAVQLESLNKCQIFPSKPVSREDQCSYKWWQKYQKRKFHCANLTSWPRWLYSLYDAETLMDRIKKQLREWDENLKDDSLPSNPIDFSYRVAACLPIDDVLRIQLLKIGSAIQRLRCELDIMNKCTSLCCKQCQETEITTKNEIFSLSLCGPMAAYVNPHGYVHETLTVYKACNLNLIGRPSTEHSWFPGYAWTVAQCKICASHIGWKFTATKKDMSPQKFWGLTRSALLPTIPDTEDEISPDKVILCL
T1 sequence (Q16531 2-1140 partner limits assumed): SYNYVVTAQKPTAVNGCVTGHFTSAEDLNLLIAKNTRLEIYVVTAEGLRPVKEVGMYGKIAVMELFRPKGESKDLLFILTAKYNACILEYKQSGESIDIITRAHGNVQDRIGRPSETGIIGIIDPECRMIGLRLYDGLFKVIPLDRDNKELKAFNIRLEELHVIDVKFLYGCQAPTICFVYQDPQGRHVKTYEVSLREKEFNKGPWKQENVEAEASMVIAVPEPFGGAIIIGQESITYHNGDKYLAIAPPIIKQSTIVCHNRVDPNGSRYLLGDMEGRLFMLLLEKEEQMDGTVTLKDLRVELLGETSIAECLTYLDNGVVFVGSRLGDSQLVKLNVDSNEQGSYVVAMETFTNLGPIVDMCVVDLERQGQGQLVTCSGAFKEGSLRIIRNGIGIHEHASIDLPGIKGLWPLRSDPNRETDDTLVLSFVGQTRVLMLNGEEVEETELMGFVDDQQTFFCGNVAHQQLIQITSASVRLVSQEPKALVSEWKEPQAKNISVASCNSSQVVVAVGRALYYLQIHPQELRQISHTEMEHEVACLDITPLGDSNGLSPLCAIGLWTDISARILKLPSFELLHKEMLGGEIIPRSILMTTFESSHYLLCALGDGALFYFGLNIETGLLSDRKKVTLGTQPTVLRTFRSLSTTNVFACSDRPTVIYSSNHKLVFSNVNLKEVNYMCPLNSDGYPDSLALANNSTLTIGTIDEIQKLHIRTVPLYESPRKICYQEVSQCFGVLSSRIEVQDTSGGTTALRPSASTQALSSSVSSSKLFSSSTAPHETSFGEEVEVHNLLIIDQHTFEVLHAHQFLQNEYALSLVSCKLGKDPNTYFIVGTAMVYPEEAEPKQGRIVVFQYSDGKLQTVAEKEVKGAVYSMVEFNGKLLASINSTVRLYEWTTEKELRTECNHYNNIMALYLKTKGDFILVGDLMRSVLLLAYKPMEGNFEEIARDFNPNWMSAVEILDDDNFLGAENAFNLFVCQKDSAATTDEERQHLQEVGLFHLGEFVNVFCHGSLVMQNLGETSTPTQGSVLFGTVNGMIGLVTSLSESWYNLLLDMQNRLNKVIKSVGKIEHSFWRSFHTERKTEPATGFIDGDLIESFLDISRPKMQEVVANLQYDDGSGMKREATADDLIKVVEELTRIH
Protocol: HEK293 clonal line with CRISPR KI HiBiT tag on CSNK1A1 and stably expressing LgBiT protein was obtained from Promega (Madison, WI). Cells were plated at 5000 cells per well using Multiflo (BioTek) in 384-well white solid bottom plates (Corning, 3570BC) in […] volume in DMEM media (DMEM, high glucose, HEPES, no phenol red (ThermoFisher Scientific, 21063029)) containing 10% FBS (Corning, 35-075-CV), 1% Penicillin/Streptomycin ((ThermoFisher Scientific, 15140-122), and 0.2% Endurazine (Nano-Glo Endurazine Live Cell Substrate (Promega, N2571)). Cells were incubated for 16 hours at 37C, 5% CO2. Depending on experiment 25 or 75 nL of a compound at 10 mM were added into the plate using an Echo®650 liquid handler (Labcyte) to achieve final concentration of […] in wells. Cells were incubated at 37° C., 5% CO2 for 24 hours followed by signal was read on Pherastar FSX using “LUM plus” optic module.
Data analysis was performed using Scinamic (Scinamic, Cambridge, MA).
Luminescence response (R) was calculated by the formula: response=100*(S−N)/(P−N), where S is the signal of the well, N and P the mean negative and positive control values, respectively, of the same plate. The luminescence response was then fitted in Scinamic using a 3-parameter agonist logistic fit (hillslope=1, EC50>0, top/bottom unconstrained).
DC50 data are reported in Table 2 for compounds in Table 1. In Table 2 below, According to the code, A represents a DC50 value of ≤0.1 μM, B represents a DC50 value>0.1 μM and ≤1 μM, C represents an DC50 value>1 μM.

[2] = target: CRBN/DDB1 (Homo sapiens, UniProt Q96SW2); assay: HTRF binding assay (thalidomide probe displacement from CRBN/DDB1); conditions: CRBN/DDB1 2.5 nM, Cy5-Thalidomide 100 nM, 30 min; geometric mean; read-out: HTRF_Thali_Disp_DR—geo_IC50
Sequence of CRBN/DDB1 (Q96SW2 whole entry): as the sequence (Q96SW2 whole entry) above
Sequence of CRBN/DDB1 (Q16531 whole entry partner): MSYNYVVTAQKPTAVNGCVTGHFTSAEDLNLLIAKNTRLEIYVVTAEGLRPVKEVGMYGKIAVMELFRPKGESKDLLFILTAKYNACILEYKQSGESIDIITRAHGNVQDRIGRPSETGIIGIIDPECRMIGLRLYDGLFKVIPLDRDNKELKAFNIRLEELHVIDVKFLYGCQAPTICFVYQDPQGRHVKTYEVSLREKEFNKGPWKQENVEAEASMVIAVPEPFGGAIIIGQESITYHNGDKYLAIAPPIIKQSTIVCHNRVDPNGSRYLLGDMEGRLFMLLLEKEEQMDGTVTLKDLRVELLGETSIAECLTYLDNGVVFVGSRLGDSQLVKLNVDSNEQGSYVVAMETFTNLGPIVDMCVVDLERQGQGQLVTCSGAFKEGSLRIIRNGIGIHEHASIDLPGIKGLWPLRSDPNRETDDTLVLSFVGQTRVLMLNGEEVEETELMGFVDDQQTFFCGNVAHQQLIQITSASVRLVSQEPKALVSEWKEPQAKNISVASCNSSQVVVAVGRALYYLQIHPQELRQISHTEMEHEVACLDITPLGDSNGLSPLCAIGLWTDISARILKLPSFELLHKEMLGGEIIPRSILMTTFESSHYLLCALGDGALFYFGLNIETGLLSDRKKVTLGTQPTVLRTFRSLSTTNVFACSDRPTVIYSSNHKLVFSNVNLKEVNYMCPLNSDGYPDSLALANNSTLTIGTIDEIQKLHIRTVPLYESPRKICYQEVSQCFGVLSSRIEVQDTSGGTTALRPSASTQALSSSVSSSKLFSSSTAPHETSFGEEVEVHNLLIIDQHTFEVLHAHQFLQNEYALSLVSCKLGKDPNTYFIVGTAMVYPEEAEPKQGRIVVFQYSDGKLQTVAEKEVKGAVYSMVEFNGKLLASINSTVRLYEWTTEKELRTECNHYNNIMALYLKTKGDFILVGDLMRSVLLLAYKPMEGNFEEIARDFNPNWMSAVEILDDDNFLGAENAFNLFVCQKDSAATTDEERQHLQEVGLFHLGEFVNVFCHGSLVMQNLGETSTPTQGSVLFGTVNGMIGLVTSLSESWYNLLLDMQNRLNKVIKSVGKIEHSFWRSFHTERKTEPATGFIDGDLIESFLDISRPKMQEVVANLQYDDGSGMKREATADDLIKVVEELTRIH
Source text: Binding of test compounds to CRBN/DDB1 was monitored in an HTRF assay using 1-[5-({2-[2-(2-{[2-(2,6-dioxopiperidin-3-yl)-1,3-dioxo-2,3-dihydro-1H-isoindol-4-yl]oxy}acetamido)ethoxy]ethyl}carbamoyl)pentyl]-3,3-dimethyl-2-[(1E,3E)-5-[(2E)-1,3,3-trimethyl-5-sulfo-2,3-dihydro-1H-indol-2-ylidene]penta-1,3-dien-1-yl]-3H-indol-1-ium-5-sulfonate as a fluorescent probe. In this assay, compounds displace the fluorescently labeled thalidomide-based probe bound to CRBN and fluorescence is monitored with increasing compound concentration. Assays were conducted in Greiner white 384 well HiBase plates (Cat. No 784075-25) in 10 μL total volume. A one pot detection solution of CRBN/DDB1 (2.5 nM), anti-His Terbium Cryptate Gold (1×, PerkinElmer Cat. #: 61HI2TLB), and Cy5-Thalidomide (100 nM, Tenova Cat.: T52461) was prepared in 20 mM HEPES, 20 mM NaCl, 0.2 mM TCEP, 0.2 mM EDTA, and 0.005% Tween20 was dispensed to each assay plate. Test compounds were stored in dry, ambient temperatures at 10 mM. A 10-point, 1:3 dilution series was prepared from 10 mM stock concentrations in Echo-compatible LDV plates. 10 nL of each compound dilution series was dispensed into assays wells using an Echo 650 (Labcyte inc. USA). 10 nL of 10 mM lenalidomide (Selleckchem Cat no. S1029) was transferred into the active-control wells for the assay and 10 nL of DMSO was transferred into the negative control wells. The assay was then allowed to incubate for 30 min at ambient temperature after transferring the test compounds. Plate measurements were taken on a Pherastar FSX (BMG Labtech, Germany) using the HTRF Red filter (Ex. 337 nm, eml: 620 nm, em2: 665 nm) (Flashes: 50, Integration time: 60-400 μs, Z-height: 10 mm, Ratio-multiplier: 10,000). Analysis, HTRF ratio and IC50 values were derived using KNIME analytics (KNIME Zurich) transformation and fitting within Collaborative Drug Discovery (Collaborative Drug Discovery USA) using a 4-parameter logistic fit. HTRF ratio calculation was performed using the following formula: […]
where em665nm represents the measured emission at 665 nm upon excitation at 337 nm and em620nm the measured emission at 620 nm upon excitation at 337 nm. The 4 parameter logistic fitting model was performed using the following formula: […]
where Y represents the HTRF ratio response (as defined previously), X the compound concentration in μM, Ymin the minimum response plateau, Ymax the maximum response plateau, IC50 the concentration of agonist that gives a response half way between Ymin and Ymax and HillSlope the steepness of the family of curves. No fitting model constraints was applied on Ymin, or Ymax whilst IC50>0 and −0.5>HillSlope>−3
Ki values were derived from the geometric mean of the IC50 values using the Cheng-Prusoff transformation:
where [L] represents the concentration of fluorescent probe in μM, Kd the affinity (binding constant) of the fluorescent probe in units of μM and IC50 the concentration of agonist that gives a response halfway between Ymin and Ymax (as described in 1.2.1)
Analysis and IC50 values were derived using KNIME analytics (KNIME, Zurich) transformation and fitting within Collaborative Drug Discovery (Collaborative Drug Discovery, USA) as described in 1.2.1. Ki values were derived from the geometric mean of the IC50 values using the Cheng-Prusoff transformation as described in 2.2.2. Data was visualized in GraphPad Prism 8.1.2 (GraphPad, USA) and reported as mean and standard deviation. Microsoft Office Excel 2012 (Redmond, WA) was used for calculation of mean and standard deviation.
IC50 data are reported in Table 3 for compounds in Table 1. In Table 3 below, According to the code, A represents a IC50 value of ≤0.1 μM, B represents a IC50 value≥0.1 μM and ≤1 μM, C represents an IC50 value>1 μM.

[3] = system: SKCO1; assay: GI50 growth inhibition, CyQUANT, SKCO1; assay type: cell-based; conditions: Homo sapiens, SK-CO-1, SKCO1 cells, 120 to 168 hours
Protocol: (§1) SKCO1, LS180, and LS174T cell lines were purchased from ATCC. CW2 cell line was purchased from Riken. GP2D cell line was purchased from Sigma/ECACC. All cell lines were cultured in manufacturer's recommended media at 37° C., 5% CO2. Briefly, cells were suspended in 200 μL of media and seeded at 300 to 1,800 cells per well in tissue culture treated 96-well plates with black walls and clear bottom. Plates were incubated overnight and initial (T0) read was performed the following day using CyQUANT Direct Cell Proliferation Assay Kit (Thermo Fisher Scientific) according to manufacturer's protocol. All compounds were solubilized in DMSO and prepared at 3-fold serial dilution, using 9 points starting at 30 μM as highest concentration, administered to cells and incubated for 120 to 168 hours, at which point CyQUANT assay measurement was performed using Acumen Cellista instrument (Ex/Em 480/520 nm). Media-only wells were used as blank, and 0.3% DMSO was used as DMSO-treated cell control. Growth inhibition (percent response) was calculated using the following formula in Excel: “=if ([Compound treated Day N]>[Untreated Day 0, AVG], ([Compound treated Day N]−[Untreated Day 0, AVG])/([Untreated Day N]−[Untreated Day 0, AVG])*100, ([Compound Treated Day N]−[Untreated Day 0, AVG])/([Untreated Day 0, AVG])*100)”. GI50 is the response corresponding to the 50% of untreated control.
(§2) GI50 data are reported in Tables 4a, 4b, 4c, 4d, and 4e for compounds in Table 1. In Tables 4a, 4b, 4c, 4d, and 4e below, According to the code, A represents a GI50 value of ≤0.1 μM, B represents a GI50 value>0.1 μM and ≤1 μM, C represents an GI50 value>1 μM.

[4] = system: CW2; assay: GI50 growth inhibition, CyQUANT, CW2; assay type: cell-based; conditions: Homo sapiens, CW-2, CW2 cells, 120 to 168 hours
Protocol: as §1, §2

[5] = system: GP2D; assay: GI50 growth inhibition, CyQUANT, GP2D; assay type: cell-based; conditions: GP2D cells, 120 to 168 hours
Protocol: as §1, §2

[6] = system: LS180; assay: GI50 growth inhibition, CyQUANT, LS180; assay type: cell-based; conditions: Homo sapiens, LS180 cells, 120 to 168 hours
Protocol: as §1, §2

[7] = system: LS174T; assay: GI50 growth inhibition, CyQUANT, LS174T; assay type: cell-based; conditions: Homo sapiens, LS174T cells, 120 to 168 hours
Protocol: as §1, §2

SMILES | DC50 [1] [µM] | IC50 [2] [nM] | GI50 [3] [nM] | GI50 [4] [nM] | GI50 [5] [nM] | GI50 [6] [nM] | GI50 [7] [nM]
O=C1CCC(N2Cc3cc(NC(=O)c4cn(-c5ccccc5)cn4)ccc3C2=O)C(=O)N1 (centres unmarked) [Compound 109, N-(2-(2,6-dioxopiperidin-3-yl)-1-oxoisoindolin-5-yl)-1-phenyl-1H-imidazole-4-carboxamide] | < 0.1 | 100 to 1000 | < 100 | < 100 | < 100 | 100 to 1000 | < 100
Cc1cc(CC(=O)Nc2ccc3c(c2)CN(C2CCC(=O)NC2=O)C3=O)ccc1Cl (centres unmarked) [Compound 144, 2-(4-chloro-3-methylphenyl)-N-(2-(2,6-dioxopiperidin-3-yl)-1-oxoisoindolin-5-yl)acetamide] | 0.1 to 1 | 100 to 1000 | – | – | – | – | –
O=C1CCC(N2Cc3cc(NC(=O)c4ccccn4)ccc3C2=O)C(=O)N1 (centres unmarked) [Compound 133, N-(2-(2,6-dioxopiperidin-3-yl)-1-oxoisoindolin-5-yl)] | 0.1 to 1 | 100 to 1000 | – | – | – | – | –
Cc1c(C(=O)Nc2ccc3c(c2)CN(C2CCC(=O)NC2=O)C3=O)ncn1-c1ccccc1 (centres unmarked) [Compound 158, N-(2-(2,6-dioxopiperidin-3-yl)-1-oxoisoindolin-5-yl)-5-methyl-1-phenyl-1H-imidazole-4-carboxamide] | < 0.1 | 100 to 1000 | – | – | – | – | –
Cn1ccnc1C(=O)Nc1ccc2c(c1)CN(C1CCC(=O)NC1=O)C2=O (centres unmarked) [Compound 119, N-(2-(2,6-dioxopiperidin-3-yl)-1-oxoisoindolin-5-yl)-1-methyl-1H-imidazole-2-carboxamide] | > 1 | 100 to 1000 | – | – | – | – | –
O=C1CCC(N2Cc3cc(NC(=O)c4ncccc4Cl)ccc3C2=O)C(=O)N1 (centres unmarked) [Compound 103, 3-chloro-N-(2-(2,6-dioxopiperidin-3-yl)-1-oxoisoindolin-5-yl) picolinamide] | 0.1 to 1 | 100 to 1000 | – | – | – | – | –
COc1cc2c(cc1NC(=O)c1ccc(Cl)cc1)CN(C1CCC(=O)NC1=O)C2=O (centres unmarked) [Compound 110, 4-chloro-N-(2-(2,6-dioxopiperidin-3-yl)-6-methoxy-1-oxoisoindolin-5-yl)benzamide] | > 1 | 100 to 1000 | – | – | – | – | –
O=C1CCC(N2Cc3cc(NC(=O)c4nccs4)ccc3C2=O)C(=O)N1 (centres unmarked) [Compound 102, N-(2-(2,6-dioxopiperidin-3-yl)-1-oxoisoindolin-5-yl)thiazole-2-carboxamide] | 0.1 to 1 | 100 to 1000 | – | – | – | – | –
CCc1cc2c(cc1NC(=O)c1ccc(Cl)cc1)CN(C1CCC(=O)NC1=O)C2=O (centres unmarked) [Compound 111, 4-chloro-N-(2-(2,6-dioxopiperidin-3-yl)-6-ethyl-1-oxoisoindolin-5-yl)benzamide] | > 1 | 100 to 1000 | – | – | – | – | –
